Source: US4987129A, “Cephalosporin derivatives” (priority 1987, dated 1991)
In brackets after ≈: the same amount, converted by molar mass. Where a name gives a salt, the structure may show the parent alone. Read-outs that look alike come from different tables or passages of the source.

Key:
Assay type in all cases: cell-based
[1] = tested on: Staphylococcus aureus Smith; assay: minimum inhibitory concentration (MIC), standard method of Japan Society of Chemotherapy; settings: Tables 2A, 2B
Procedure: (§1) The minimum inhibitory concentration (MIC) of the compounds obtained in the above Examples were measured according to the standard method of Japan Society of Chemotherapy.

[2] = tested on: Citrobacter freundii GN7391; assay: minimum inhibitory concentration (MIC); settings: Citrobacter freundii GN7391; Tables 2A, 2B; read-out: MIC
Procedure: as §1

[3] = tested on: Enterobacter cloacae 908RN; assay: minimum inhibitory concentration (MIC); settings: Enterobacter cloacae 908RN, Tables 2A, 2B
Procedure: as §1

[4] = tested on: Enterobacter cloacae GN7471; assay: minimum inhibitory concentration (MIC); settings: Enterobacter cloacae GN7471; Tables 2A, 2B; read-out: MIC
Procedure: as §1

Escherichia coli GN5482 = assay: minimum inhibitory concentration (MIC); settings: Tables 2A, 2B
Procedure: as §1

Escherichia coli ML4704 = assay: minimum inhibitory concentration (MIC); settings: Escherichia coli ML4704; Tables 2A, 2B; read-out: MIC
Procedure: as §1

[5] = tested on: Klebsiella pneumoniae 4at521; assay: minimum inhibitory concentration (MIC); settings: Tables 2A, 2B
Procedure: as §1

Proteus vulgris GN7919 = assay: minimum inhibitory concentration (MIC); settings: Proteus vulgris GN7919; Tables 2A, 2B; read-out: MIC
Procedure: as §1

[6] = tested on: Pseudomonas aeruginosa 4au542; assay: minimum inhibitory concentration (MIC); settings: Tables 2A, 2B
Procedure: as §1

[7] = tested on: Pseudomonas aeruginosa 5D58-1; assay: minimum inhibitory concentration (MIC); settings: 5D581, Tables 2A, 2B
Procedure: as §1

[8] = tested on: Pseudomonas aeruginosa GN10362; assay: minimum inhibitory concentration (MIC); settings: Tables 2A, 2B
Procedure: as §1

[9] = tested on: Serratia marcescens GN10857; assay: minimum inhibitory concentration (MIC); settings: Tables 2A, 2B
Procedure: as §1

[10] = tested on: Staphylococcus aureus IAA498; assay: minimum inhibitory concentration (MIC); settings: Tables 2A, 2B
Procedure: as §1

| Structure (SMILES) | MIC [1] [µg/mL] | MIC [2] [µg/mL] | MIC ([3]; read-out: MIC) [µg/mL] | MIC [4] [µg/mL] | MIC (Escherichia coli GN5482) [µg/mL] | MIC (Escherichia coli ML4704) [µg/mL] | MIC [5] [µg/mL] | MIC (Proteus vulgris GN7919) [µg/mL] | MIC [6] [µg/mL] | MIC [7] [µg/mL] | MIC [8] [µg/mL] | MIC [9] [µg/mL] | MIC [10] [µg/mL] | MIC [3] [µg/mL] |
| --- | --- | --- | --- | --- | --- | --- | --- | --- | --- | --- | --- | --- | --- | --- |
| CON=C(C(=O)NC1C(=O)N2C(C(=O)O)=C(CSc3cc(C)nc4nc(CO)nn34)CSC12)c1csc(N)n1 (stereo not drawn) [Example 17, 7-[2-(2-amino-1,3-thiazol-4-yl)-2-(methoxyimino)acetamido]-3-[(2-hydroxymethyl-5-methyl-s-triazolo[1,5-a]pyrimidin-7-yl)thiomethyl]-3-cephem-4-carboxylic acid.hydrochloride] | 0.39 | 50 | 50 | 3.13 | 0.1 | 0.025 | 0.39 | 25 | 100 | 100 | 100 | 12.5 | 12.5 |  |
| Cc1cc(SCC2=C(C(=O)O)N3C(=O)C(NC(=O)C(=NOC(C)(C)C(=O)O)c4csc(N)n4)[C@H]3SC2)n2nc(CO)nc2n1 (stereo partly drawn) [Example 20, 7-[2-(2-amino-1,3-thiazol-4-yl)-2-(1-carboxy-1-methylethoxyimino)acetamido]-3-[(2-hydroxymethyl-5-methyl-s-triazolo[1,5-a]pyrimidin-7-yl)thiomethyl]-3-cephem-4-carboxylic acid] | 3.13 (≈ 4.72 µM) | > 100 |  | 6.25 (≈ 9.42 µM) | 0.78 (≈ 1.18 µM) | 0.39 (≈ 0.588 µM) | 0.78 (≈ 1.18 µM) | 3.13 (≈ 4.72 µM) | 12.5 (≈ 18.8 µM) | 6.25 (≈ 9.42 µM) | 12.5 (≈ 18.8 µM) | 12.5 (≈ 18.8 µM) | 6.25 (≈ 9.42 µM) | 100 (≈ 151 µM) |
| CON=C(C(=O)NC1C(=O)N2C(C(=O)O)=C(CSc3cc(C(=O)O)nc4nc(CO)nn34)CSC12)c1csc(N)n1 (stereo not drawn) [Example 31] | 6.25 (≈ 10.1 µM) | 100 (≈ 161 µM) |  | 6.25 (≈ 10.1 µM) | 0.2 (≈ 0.322 µM) | 0.1 (≈ 0.161 µM) | 0.2 (≈ 0.322 µM) | 50 (≈ 80.4 µM) | > 100 | > 100 | 100 (≈ 161 µM) | 25 (≈ 40.2 µM) | 12.5 (≈ 20.1 µM) | 100 (≈ 161 µM) |

Further lines, with some results ahead:

| MIC [1] [µg/mL] | MIC [2] [µg/mL] | MIC ([3]; read-out: MIC) [µg/mL] | MIC [4] [µg/mL] | MIC (Escherichia coli GN5482) [µg/mL] | MIC (Escherichia coli ML4704) [µg/mL] | MIC [5] [µg/mL] | MIC (Proteus vulgris GN7919) [µg/mL] | MIC [6] [µg/mL] | MIC [7] [µg/mL] | MIC [8] [µg/mL] | MIC [9] [µg/mL] | MIC [10] [µg/mL] | Structure (SMILES) | MIC [3] [µg/mL] |
| --- | --- | --- | --- | --- | --- | --- | --- | --- | --- | --- | --- | --- | --- | --- |
| 3.13 (≈ 3.78 µM) | 12.5 (≈ 15.1 µM) | 6.25 (≈ 7.55 µM) | 3.13 (≈ 3.78 µM) | 0.025 (≈ 0.0302 µM) | 0.025 (≈ 0.0302 µM) | 0.025 (≈ 0.0302 µM) | 1.56 (≈ 1.88 µM) | 0.2 (≈ 0.242 µM) | 0.05 (≈ 0.0604 µM) | 0.05 (≈ 0.0604 µM) | 0.39 (≈ 0.471 µM) | 6.25 (≈ 7.55 µM) | COCc1nc2nc(C)cc(SCC3=C(C(=O)O)N4C(=O)C(NC(=O)C(=NOC(C)(C)C(=O)NNC(=O)c5ccc(O)c(O)c5)c5csc(N)n5)C4SC3)n2n1 (stereo not drawn) [Example 24, 7-{2-[2-amino-1,3-thiazol-4-yl]-2-[1-(3-(3,4-dihydroxybenzoyl)carbazoyl)-1-methylethoxyimino]acetamido}-3-[(2-methoxymethyl-5-methyl-s-triazolo[1,5-a]-pyrimidin-7-yl)thiomethyl]-3-cephem-4-carboxylic acid.hydrochlride] |  |
| 0.78 (≈ 1.29 µM) | 50 (≈ 82.6 µM) | 50 (≈ 82.6 µM) | 6.25 (≈ 10.3 µM) | 0.39 (≈ 0.644 µM) | 0.05 (≈ 0.0826 µM) | 1.56 (≈ 2.58 µM) | 25 (≈ 41.3 µM) | > 100 | 100 (≈ 165 µM) | 100 (≈ 165 µM) | 25 (≈ 41.3 µM) | 25 (≈ 41.3 µM) | COCc1nc2nc(C)cc(SCC3=C(C(=O)O)N4C(=O)C(NC(=O)C(=NOC)c5csc(N)n5)C4SC3)n2n1 (stereo not drawn) [Example 26] |  |
| 12.5 (≈ 14.8 µM) | 1.56 (≈ 1.85 µM) | 1.56 (≈ 1.85 µM) | 0.78 (≈ 0.924 µM) | 0.05 (≈ 0.0593 µM) | 0.025 (≈ 0.0296 µM) | 0.025 (≈ 0.0296 µM) | 3.13 (≈ 3.71 µM) | 0.2 (≈ 0.237 µM) | 0.1 (≈ 0.119 µM) | 0.025 (≈ 0.0296 µM) | 0.78 (≈ 0.924 µM) | 25 (≈ 29.6 µM) | CC(C)(ON=C(C(=O)NC1C(=O)N2C(C(=O)O)=C(CSc3cc(C(=O)O)nc4nc(CO)nn34)CSC12)c1csc(N)n1)C(=O)NNC(=O)c1ccc(O)c(O)c1 (stereo not drawn) [Example 30, 7-{2-[2-amino-1,3-thiazol-4-yl]-2-[1-(3-(3,4-dihydroxybenzoyl)carbazoyl)-1-methylethoxyimino]acetamido}-3-[(5-carboxy-2-hydroxymethyl-s-triazolo[1,5-a]-pyrimidin-7-yl)thiomethyl]-3-cephem-4-carboxylic acid.hydrochlride] |  |
